Source: PubChem BioAssay AID248 (DTP/NCI, 2004)
Values joined by “and” are separate entries in the source; they are usually repeats but may differ in a detail not shown here. Identical values can stand only once. Inconclusive results and toxic doses are left out. Cut-off read from the data, not from the text of the source: active = T/C of 150% or more; inactive = T/C below 125%.

Test system: L1210 leukemia ip in BDF1 mice, survival T/C
Assay: NCI In Vivo Anticancer Drug Screen. Data for tumor model L1210 Leukemia (intraperitoneal) in B6D2F1 (BDF1) mice
Details: endpoint: mean survival time, higher = longer survival
Outline: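 Transplantable tumor model; survival measured in treated vs vehicle control mice. Value = treated/control.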

[1] = dose: 100.0 mg/kg/injection, schedule: Q04DX003 (ip), vehicle: saline
[2] = dose: 100.0 mg/kg/injection, schedule: Q01DX001 (ip), vehicle: saline
[3] = dose: 100.0 mg/kg/injection, schedule: Q01DX009 (ip), vehicle: saline
[4] = dose: 200.0 mg/kg/injection, schedule: Q01DX001 (ip), vehicle: saline
[5] = dose: 100.0 mg/kg/injection, schedule: Q01DX009 (ip), vehicle: saline with Tween-80
[6] = dose: 200.0 mg/kg/injection, schedule: Q01DX009 (ip), vehicle: saline with Tween-80
[7] = dose: 100.0 mg/kg/injection, schedule: Q04DX003 (ip), vehicle: saline with Tween-80
[8] = dose: 200.0 mg/kg/injection, schedule: Q04DX003 (ip), vehicle: saline with Tween-80
[9] = dose: 400.0 mg/kg/injection, schedule: Q04DX003 (ip), vehicle: saline with Tween-80
[10] = dose: 50.0 mg/kg/injection, schedule: Q01DX001 (ip), vehicle: carboxymethylcellulose (CMC)
[11] = dose: 100.0 mg/kg/injection, schedule: Q01DX001 (ip), vehicle: carboxymethylcellulose (CMC)
[12] = dose: 200.0 mg/kg/injection, schedule: Q01DX001 (ip), vehicle: carboxymethylcellulose (CMC)
[13] = dose: 100.0 mg/kg/injection, schedule: Q04DX002 (ip), vehicle: Klucel (hydroxypropylcellulose) (HPC)
[14] = dose: 200.0 mg/kg/injection, schedule: Q04DX002 (ip), vehicle: Klucel (hydroxypropylcellulose) (HPC)
[15] = dose: 400.0 mg/kg/injection, schedule: Q04DX002 (ip), vehicle: Klucel (hydroxypropylcellulose) (HPC)
[16] = dose: 200.0 mg/kg/injection, schedule: Q01DX009 (ip), vehicle: saline
[17] = dose: 200.0 mg/kg/injection, schedule: Q04DX003 (ip), vehicle: saline
[18] = dose: 400.0 mg/kg/injection, schedule: Q01DX009 (ip), vehicle: saline

Measured: T/C

CCCCCCCC/C=C\CCCCCCCC(=O)N1CC[N+](C)(C)CC1
inactive: dose: 5.0 mg/kg/injection, schedule: Q01DX001 (ip), vehicle: saline 96 % of control | dose: 10.0 mg/kg/injection, schedule: Q01DX001 (ip), vehicle: saline 104 % of control | dose: 20.0 mg/kg/injection, schedule: Q01DX001 (ip), vehicle: saline 93 % of control | dose: 40.0 mg/kg/injection, schedule: Q01DX001 (ip), vehicle: saline 93 % of control

Cc1nc(N)nc(N)c1Oc1ccc(Cl)cc1
inactive: dose: 30.0 mg/kg/injection, schedule: Q01DX Z (ip), vehicle: saline 96 % of control | dose: 60.0 mg/kg/injection, schedule: Q01DX Z (ip), vehicle: saline 98 % of control | dose: 120.0 mg/kg/injection, schedule: Q01DX Z (ip), vehicle: saline 102 % of control

COCCN=C(NCCOC)c1ccc(Nc2ncnc3nc[nH]c23)cc1
inactive: dose: 50.0 mg/kg/injection, schedule: Q04DX003 (ip), vehicle: saline 102 % of control | [1] 95 % of control

O=C(/C=C/c1ccccc1)N1CCOCC1
inactive: dose: 50.0 mg/kg/injection, schedule: Q01DX009 (ip), vehicle: saline 95 % of control | [2] 97 % of control | [3] 97 % of control | [4] 95 % of control

CC(C)(C)OOC(=O)Nc1ccc(Cl)cc1
inactive: dose: 200.0 mg/kg/injection, schedule: Q01DX001 (ip), vehicle: saline with Tween-80 89 % of control | dose: 400.0 mg/kg/injection, schedule: Q01DX001 (ip), vehicle: saline with Tween-80 92 % of control

CN(C(=O)CCC(=O)N(C)c1ccccc1)c1ccccc1
inactive: [5] 97 % of control | [6] 87 % of control

CN(C)/N=C(\Cc1ccccc1)c1ccccc1
inactive: dose: 100.0 mg/kg/injection, schedule: Q01DX001 (ip), vehicle: Klucel (hydroxypropylcellulose) (HPC) 99 % of control | dose: 200.0 mg/kg/injection, schedule: Q01DX001 (ip), vehicle: Klucel (hydroxypropylcellulose) (HPC) 99 % of control | dose: 400.0 mg/kg/injection, schedule: Q01DX001 (ip), vehicle: Klucel (hydroxypropylcellulose) (HPC) 98 % of control

CCCCN1c2ccccc2NP1(=O)c1ccccc1 (stereo unspecified)
inactive: [7] 94 % of control | [8] 96 % of control | [9] 97 % of control

NC(N)=NCC(=O)O
inactive: dose: 75.0 mg/kg/injection, schedule: Q01DX001 (ip), vehicle: saline with Tween-80 105 % of control | dose: 150.0 mg/kg/injection, schedule: Q01DX001 (ip), vehicle: saline with Tween-80 100 % of control | dose: 300.0 mg/kg/injection, schedule: Q01DX001 (ip), vehicle: saline with Tween-80 102 % of control

CCCC1(CN2c3ccccc3Sc3ccc(Cl)cc32)CCN(CC)C1 (stereo unspecified)
inactive: [1] 90 % of control

CCOc1cc(/C=N\Nc2nnc(C)n2N)c(C)cc1N(CCCl)CCCl
inactive: dose: 10.5 mg/kg/injection, schedule: Q01DX015 (ip), vehicle: carboxymethylcellulose (CMC) 119 % of control | dose: 18.0 mg/kg/injection, schedule: Q01DX015 (ip), vehicle: carboxymethylcellulose (CMC) 109 % of control | dose: 44.0 mg/kg/injection, schedule: Q01DX001 (ip), vehicle: carboxymethylcellulose (CMC) 110 % of control | [10] 120 % of control | dose: 67.0 mg/kg/injection, schedule: Q01DX001 (ip), vehicle: carboxymethylcellulose (CMC) 110 % of control and 116 % of control | [11] 111 % of control and 124 % of control | dose: 150.0 mg/kg/injection, schedule: Q01DX001 (ip), vehicle: carboxymethylcellulose (CMC) 105 % of control and 90 % of control | [12] 105 % of control

CC(O)CNC(=O)C(C)O (stereo unspecified)
inactive: [7] 98 % of control | [8] 97 % of control | [9] 102 % of control

Cc1ccc(NC(=O)OCCOc2c(C(C)C)cccc2C(C)C)c([N+](=O)[O-])c1
inactive: [13] 94 % of control | [14] 96 % of control | [15] 92 % of control

CC1=NN(c2ccc(S(=O)(=O)O)cc2)/C(=N/N=C(N)N)C1
inactive: dose: 15.0 mg/kg/injection, schedule: Q01DX Z (ip), vehicle: carboxymethylcellulose (CMC) 96 % of control | dose: 30.0 mg/kg/injection, schedule: Q01DX Z (ip), vehicle: carboxymethylcellulose (CMC) 96 % of control | dose: 60.0 mg/kg/injection, schedule: Q01DX Z (ip), vehicle: carboxymethylcellulose (CMC) 97 % of control and 100 % of control | dose: 120.0 mg/kg/injection, schedule: Q01DX Z (ip), vehicle: carboxymethylcellulose (CMC) 100 % of control and 102 % of control | dose: 240.0 mg/kg/injection, schedule: Q01DX Z (ip), vehicle: carboxymethylcellulose (CMC) 101 % of control | dose: 480.0 mg/kg/injection, schedule: Q01DX Z (ip), vehicle: carboxymethylcellulose (CMC) 97 % of control

CN(CCNC(=O)NCCCCCCNC(=O)NCCN(C)c1ccccc1)c1ccccc1
inactive: [13] 105 % of control | [14] 97 % of control | [15] 108 % of control

O=C1CCN2C=CC=CC2=N1
inactive: [3] 98 % of control | [1] 100 % of control | [16] 93 % of control | [17] 101 % of control | [18] 97 % of control | dose: 400.0 mg/kg/injection, schedule: Q04DX003 (ip), vehicle: saline 106 % of control

CC(C)=N/N=C(/C(=O)c1ccccc1)c1ccccc1
inactive: [2] 109 % of control | [4] 109 % of control | dose: 400.0 mg/kg/injection, schedule: Q01DX001 (ip), vehicle: saline 97 % of control

O=C(O)Cc1c(-c2ccccn2)[nH]c2ccccc12
inactive: dose: 75.0 mg/kg/injection, schedule: Q01DX001 (ip), vehicle: acetone 103 % of control | dose: 150.0 mg/kg/injection, schedule: Q01DX001 (ip), vehicle: acetone 102 % of control | dose: 300.0 mg/kg/injection, schedule: Q01DX001 (ip), vehicle: acetone 94 % of control

NC(c1ccccc1)c1ccccc1
inactive: [1] 104 % of control | [17] 95 % of control

C=CC[N+](CC=C)(CC=C)CCC[N+](CC=C)(CC=C)CC=C
inactive: dose: 12.5 mg/kg/injection, schedule: Q01DX009 (ip), vehicle: water 98 % of control | dose: 25.0 mg/kg/injection, schedule: Q01DX009 (ip), vehicle: water 98 % of control and 101 % of control | dose: 50.0 mg/kg/injection, schedule: Q01DX009 (ip), vehicle: water 102 % of control and 108 % of control

O=C(O)COc1cc(Cl)c(Cl)cc1Cl
inactive: [10] 102 % of control | [11] 106 % of control | [7] 100 % of control | [12] 112 % of control | [8] 103 % of control | dose: 400.0 mg/kg/injection, schedule: Q01DX001 (ip), vehicle: carboxymethylcellulose (CMC) 108 % of control | [9] 100 % of control

CC(C)(C)NSc1nc2ccccc2s1
inactive: dose: 50.0 mg/kg/injection, schedule: Q01DX009 (ip), vehicle: saline with Tween-80 97 % of control | [5] 94 % of control | [6] 98 % of control

CCCCCCCCC(=O)CC
inactive: [3] 104 % of control | [16] 98 % of control | [18] 94 % of control

O=S(=O)(O)SCCCNCCCNCCCSS(=O)(=O)O
inactive: dose: 9.37 mg/kg/injection, schedule: Q01DX009 (ip), vehicle: saline 88 % of control | dose: 18.75 mg/kg/injection, schedule: Q01DX009 (ip), vehicle: saline 87 % of control | dose: 37.5 mg/kg/injection, schedule: Q01DX009 (ip), vehicle: saline 93 % of control | dose: 37.5 mg/kg/injection, schedule: Q04DX003 (ip), vehicle: saline 98 % of control | dose: 75.0 mg/kg/injection, schedule: Q01DX001 (ip), vehicle: saline 102 % of control | dose: 75.0 mg/kg/injection, schedule: Q04DX003 (ip), vehicle: saline 93 % of control | dose: 150.0 mg/kg/injection, schedule: Q01DX001 (ip), vehicle: saline 96 % of control

CC(Oc1ccccc1)C(=O)Nc1ccc(F)cc1 (stereo unspecified)
inactive: [13] 94 % of control | [14] 97 % of control | [15] 97 % of control

BrC(c1ccccc1)C(Br)[n+]1ccccc1 (stereo unspecified)
inactive: dose: 75.0 mg/kg/injection, schedule: Q01DX001 (ip), vehicle: other 107 % of control
